Assay results published in patent US10295551B2, “Development and use of fluorescent probes of unbound bilirubin” (Alan Marc Kleinfeld, priority 2011, dated 2019).
Read-outs that look alike come from different tables or passages of the source.

What was measured:
[1] = target: T1, rI-FABP (SEQ ID NO: 3) variant L24P19 C7 K27K 30C, 14R 18L 30C 38V 60R 73F 106C 115R 117D (Rattus norvegicus, UniProt P02693, A74F/L31C/L39V/L73A/M19L/Q116R/R107C/V61R/Y118D/Y15R); assay: bilirubin binding to L24P19C7 30C probe; conditions: Table 5, acrylodan
T1 construct: made in house
T1 sequence (P02693 with tags, fused parts or gaps Y15R/M19L/L31C/L39V/V61R/L73A/A74F/R107C/Q116R/Y118D): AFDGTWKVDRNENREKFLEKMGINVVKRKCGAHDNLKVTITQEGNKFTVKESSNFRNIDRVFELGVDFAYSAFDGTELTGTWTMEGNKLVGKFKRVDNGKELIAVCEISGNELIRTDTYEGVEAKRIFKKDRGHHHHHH
Experimental: (§1) Also described are analytical/mathematical methods for calibrating and using the bilirubin probes. Bilirubin probes are calibrated to determine their binding affinity for bilirubin (dissociation constant Kd) under conditions, such as temperature, pH and solution composition, that correspond to samples in which it is desired to know the unbound bilirubin concentration. Binding isotherms are performed in aqueous buffer by measuring the change in fluorescence of the bilirubin probes in response to increasing bilirubin concentrations (“titration data”). The set of fluorescence responses at each bilirubin concentration are fitted with an appropriate equation (“calibration equation”) that correctly describes the fluorescence response as a function of the bilirubin concentration, the probe concentration, specific spectroscopic characteristics, and the Kd.
(§2) . […] The optimal probe performance was obtained with cysteine at positions 25 or 26.

[2] = target: T2, rI-FABP (SEQ ID NO: 3) variant BL22P1B11, MGI-KR14-14R 18L 25C 27A 38V 60R 73F 106L 115R 117D, SEQ ID NO: 35 (Rattus norvegicus, UniProt P02693, A74F/K101R/K126R/K17R/K21R/K28A/K30R/K38R/K47R/K51R/K89R/K8R/K93R/K95R/L39V/L73A/M19L/Q116R/R107L/V26C/V61R/Y118D/Y15R); assay type: binding; conditions: Table 5, Alexa Fluor 680 C2-maleimide; read-out: Kd
T2 construct: made in house
T2 sequence (P02693 with tags, fused parts or gaps with the stated changes): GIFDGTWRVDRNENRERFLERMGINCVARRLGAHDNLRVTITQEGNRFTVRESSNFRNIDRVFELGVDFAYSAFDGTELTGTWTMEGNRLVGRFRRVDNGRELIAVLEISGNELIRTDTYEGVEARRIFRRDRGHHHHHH

[3] = target: T3, rI-FABP (SEQ ID NO: 3) variant L2P14F7 MGI KR14 K27C, MGI - KR14 - 18G 27C 31M 72A (Rattus norvegicus, UniProt P02693, A2G/G32M/INS2I/K101R/K126R/K130R/K131R/K17R/K21R/K28C/K30R/K38R/K47R/K51R/K89R/K8R/K93R/K95R/L73A/M19G); assay: bilirubin binding to L2P14F7 MGI KR14 K27C probe; conditions: Table 5, acrylodan
T3 construct: made in house
T3 sequence (P02693 with tags, fused parts or gaps with the stated changes): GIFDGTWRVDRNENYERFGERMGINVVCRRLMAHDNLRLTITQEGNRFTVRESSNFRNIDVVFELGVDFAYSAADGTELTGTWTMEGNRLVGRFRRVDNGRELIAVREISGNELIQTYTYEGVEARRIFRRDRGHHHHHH
Experimental: as §1

[4] = target: T4, rI-FABP (SEQ ID NO: 3) variant L2P14 F7 - K27C, 18G 27C 31M 72A (Rattus norvegicus, UniProt P02693, G32M/K28C/L73A/M19G); assay: bilirubin binding to L2P14F7-K27C probe; conditions: Table 5, acrylodan
T4 construct: made in house
T4 sequence (P02693 with tags, fused parts or gaps M19G/K28C/G32M/L73A): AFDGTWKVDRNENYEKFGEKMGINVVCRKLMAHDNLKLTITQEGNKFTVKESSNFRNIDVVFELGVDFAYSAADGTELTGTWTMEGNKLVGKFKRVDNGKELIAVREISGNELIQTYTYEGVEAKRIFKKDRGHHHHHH
Experimental: as §1

[5] = target: T5, rI-FABP (SEQ ID NO: 3) variant L22P33 A10, 38R 72A 73N 106S 115C (Rattus norvegicus, UniProt P02693, A74N/L39R/L73A/Q116C/R107S); assay: bilirubin binding to L22P33A10 probe; conditions: Table 5, acrylodan
T5 construct: made in house
T5 sequence (P02693 with tags, fused parts or gaps L39R/L73A/A74N/R107S/Q116C): as the sequence (P02693 with tags, fused parts or gaps M19G/K28C/G32M/L73A) above, with G18M, C27K, M31G, L38R, A73N, R106S, Q115C counted along it
Experimental: as §1

[6] = target: rI-FABP (SEQ ID NO: 3) variant L2P14 F7, 18G 31M 72A (Rattus norvegicus, UniProt P02693, G32M/L73A/M19G); assay: bilirubin binding to L2P14F7 probe; conditions: Table 6, acrylodan
Sequence of rI-FABP (SEQ ID NO: 3) variant L2P14 F7, 18G 31M 72A (P02693 with tags, fused parts or gaps M19G/G32M/L73A): as the sequence (P02693 with tags, fused parts or gaps M19G/K28C/G32M/L73A) above, with C27K counted along it
Experimental: as §1

[7] = target: T6, rI-FABP (SEQ ID NO: 3) variant L24P19 C7 K27K 24C, 14R 18L 24C 38V 60R 73F 106C 115R 117D (Rattus norvegicus, UniProt P02693, A74F/L39V/L73A/M19L/N25C/Q116R/R107C/V61R/Y118D/Y15R); assay: bilirubin binding to L24P19C7 24C probe; conditions: Table 5, acrylodan
T6 construct: made in house
T6 sequence (P02693 with tags, fused parts or gaps Y15R/M19L/N25C/L39V/V61R/L73A/A74F/R107C/Q116R/Y118D): as the sequence (P02693 with tags, fused parts or gaps Y15R/M19L/L31C/L39V/V61R/L73A/A74F/R107C/Q116R/Y118D) above, with N24C, C30L counted along it
Experimental: as §1, §2

[8] = target: T7, rI-FABP (SEQ ID NO: 3) variant L24P19 C7 K27K 26C, 14R 18L 26C 38V 60R 73F 106C 115R 117D (Rattus norvegicus, UniProt P02693, A74F/L39V/L73A/M19L/Q116R/R107C/V27C/V61R/Y118D/Y15R); assay: bilirubin binding to L24P19C7 26C probe; conditions: Table 5, acrylodan
T7 construct: made in house
T7 sequence (P02693 with tags, fused parts or gaps Y15R/M19L/V27C/L39V/V61R/L73A/A74F/R107C/Q116R/Y118D): as the sequence (P02693 with tags, fused parts or gaps Y15R/M19L/L31C/L39V/V61R/L73A/A74F/R107C/Q116R/Y118D) above, with V26C, C30L counted along it
Experimental: as §1, §2

[9] = target: T8, rI-FABP (SEQ ID NO: 3) variant L24P19C7-K27C, 14R 18L 27C 38V 60R 73F 106C 115R 117D (Rattus norvegicus, UniProt P02693, A74F/K28C/L39V/L73A/M19L/Q116R/R107C/V61R/Y118D/Y15R); assay: bilirubin binding to L24P19C7-K27C probe; conditions: Table 5, acrylodan
T8 construct: made in house
T8 sequence (P02693 with tags, fused parts or gaps Y15R/M19L/K28C/L39V/V61R/L73A/A74F/R107C/Q116R/Y118D): as the sequence (P02693 with tags, fused parts or gaps Y15R/M19L/L31C/L39V/V61R/L73A/A74F/R107C/Q116R/Y118D) above, with K27C, C30L counted along it
Experimental: as §1

[10] = target: T9, rI-FABP (SEQ ID NO: 3) variant L22P19 B9, 38R 72A 73M 106Q 115C (Rattus norvegicus, UniProt P02693, A74M/L39R/L73A/Q116C/R107Q); assay: bilirubin binding to L22P19B9 probe; conditions: Table 5, acrylodan
T9 construct: made in house
T9 sequence (P02693 with tags, fused parts or gaps L39R/L73A/A74M/R107Q/Q116C): as the sequence (P02693 with tags, fused parts or gaps M19G/K28C/G32M/L73A) above, with G18M, C27K, M31G, L38R, A73M, R106Q, Q115C counted along it
Experimental: as §1

[11] = target: T10, rI-FABP (SEQ ID NO: 3) variant BL22P1 B11 - 27C, MGI - KR14 - Y14R M18L K27C L38V V60R A73F R106L Q115R Y117D (Rattus norvegicus, UniProt P02693, A74F/K101R/K126R/K17R/K21R/K28C/K30R/K38R/K47R/K51R/K89R/K8R/K93R/K95R/L39V/L73A/M19L/Q116R/R107L/V61R/Y118D/Y15R); assay type: binding
T10 construct: 6xHis (C); made in house
T10 sequence (P02693 with tags, fused parts or gaps with the stated changes): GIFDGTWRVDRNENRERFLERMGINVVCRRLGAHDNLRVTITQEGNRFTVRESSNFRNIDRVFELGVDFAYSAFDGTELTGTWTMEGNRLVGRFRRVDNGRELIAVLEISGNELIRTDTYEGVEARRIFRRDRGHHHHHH
Experimental: as §1

[12] = target: T11, rI-FABP (SEQ ID NO: 3) variant BL22P1 B11 - 26C, MGI - KR14 - Y14R M18L V26C K27A L38V V60R A73F R106L Q115R Y117D (Rattus norvegicus, UniProt P02693, A74F/K101R/K126R/K17R/K21R/K28A/K30R/K38R/K47R/K51R/K89R/K8R/K93R/K95R/L39V/L73A/M19L/Q116R/R107L/V27C/V61R/Y118D/Y15R); assay type: binding; conditions: Table 5, Alexa Fluor 680 C2-maleimide
T11 construct: 6xHis (C); made in house
T11 sequence (P02693 with tags, fused parts or gaps with the stated changes): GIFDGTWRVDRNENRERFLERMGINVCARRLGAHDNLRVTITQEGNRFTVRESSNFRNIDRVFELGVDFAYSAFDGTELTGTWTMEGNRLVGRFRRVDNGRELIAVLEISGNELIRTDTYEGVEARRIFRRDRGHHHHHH
Experimental: as §1

[13] = target: T12, rI-FABP (SEQ ID NO: 3) variant L2P14F7-MGCFD, MGCFD - 18G 31M 72A (Rattus norvegicus, UniProt P02693, A2G/G32M/INS2C/L73A/M19G); assay: bilirubin binding to L2P14F7-MGCFD probe; conditions: Table 5, Texas Red C2-Maleimide
T12 construct: made in house
T12 sequence (P02693 with tags, fused parts or gaps M19G/G32M/L73A): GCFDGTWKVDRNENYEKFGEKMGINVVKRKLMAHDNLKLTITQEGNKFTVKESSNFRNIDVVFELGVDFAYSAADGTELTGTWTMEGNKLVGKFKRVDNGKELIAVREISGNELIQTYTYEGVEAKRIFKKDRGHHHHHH
Experimental: as §1

- Kd [1]: 26 nM
- Kd [2]: 110 nM
- Kd [3]: 350 nM
- Kd [4]: 250 nM
- Kd [5]: 245 nM
- Kd [6]: 69 nM
- Kd [7]: 89 nM
- Kd [8]: 19 nM
- Kd [9]: 242 nM
- Kd [10]: 400 nM
- Kd ([11]; Table 5, Alexa Fluor 680 C2-maleimide): 70 nM
- Kd ([11]; Table 5, Alexa Fluor 750 C5-maleimide): 154 nM
- Kd [12]: 197 nM
- Kd [13]: 400 nM
SMILES: C=CC1=C(C)/C(=C/c2[nH]c(Cc3[nH]c(/C=C4\NC(=O)C(C)=C4C=C)c(C)c3CCC(=O)O)c(CCC(=O)O)c2C)NC1=O [bilirubin]
